{"source": "patent US10349659B2", "about": "“Plant disease control composition and plant disease control method” (SUMITOMO CHEMICAL COMPANY, LIMITED, priority 2015, dated 2019)", "key": {"[1]": {"tested_on": "wheat leaf blight fungus", "assay": "Test Example 3: growth of wheat leaf blight fungus in YBG medium, microtiter plate", "format": "cell-based, Mycosphaerella graminicola", "settings": "18° C., six days, absorbance 550 nm", "protocol": "The present compound 1 or the present compound 2-1 was dissolved into dimethyl sulfoxide such that each concentration of the present compound 1 or the present compound 2-1 was adjusted to one hundred fifty times as much as the concentration indicated in the below-mentioned Table 5. The resultant agent solution was dispensed into a microtiter plate (with 96 wells) in 1 μl portion thereof per well. One hundred forty nine (149) μl of YBG medium (which was prepared by dissolving 10 g of yeast extract, 10 g of Bacto Peptone, and 20 mL of glycerol into 1 L of water, followed by sterilizing the medium) was dispensed into the wells to which the agent solution(s) was/were dispensed. The plate was cultivated at 18° C. for six days, thereby allowing wheat leaf blight fungus to undergo proliferation, and the absorbance at 550 nm of each well of the micro titer plate was then measured to examine a degree of growth of the wheat leaf blight fungus (hereinafter referred to as “treated group”).\nWhereas, wheat leaf blight fungus was proliferated similarly to the case of the treated group except that dimethyl sulfoxide was used instead of the agent solution, and the degree of the growth was examined (hereinafter referred to as “untreated group”). The efficacy was calculated from the respective obtained degree of growth by the below-mentioned “Equation 1”. […]"}, "[2]": {"tested_on": "wheat rust fungus (Puccinia recondita)", "assay": "Test Example 4: foliar spray of flowable formulations on wheat, wheat rust lesion area", "format": "in vivo", "settings": "foliar spray on wheat one day before inoculation, lesion area after ten days at 23° C.", "protocol": "Five (5) parts of the present compound 1, 35 parts of a mixture of white carbon and ammonium polyoxyethylene alkyl ether sulfate (the weight ratio of 1:1) and […] of water were mixed, and the mixture was then finely-ground by a wet grinding method to obtain a flowable formulation comprising the present compound 1. Separately, the flowable formulation comprising the present compound 2-1 was prepared according to the above-mentioned similar method except that the present compound 2-1 was used instead of the present compound 1 to form a flowable formulation comprising the present compound 2-1.\nEach of the above-mentioned respective flowable formulations, and the flowable formulation comprising the present compound 1 and the present compound 2-1 that was prepared according to the above-mentioned Formulation Example 3 was diluted with water such that each concentration of the respective compounds in the dilution solutions was adjusted to that indicated in Table 6, to prepare the dilution solutions, respectively.\nA plastic pot was filled with soil, and thereto wheat (cultivar. Shirogane) was seeded, and the plants were grown in a greenhouse for ten days. […]\nFrom each of the lesion area of the treated group and the untreated group, respectively, the efficacy of the treated group was calculated by the below-mentioned Equation 2. […]"}}, "data": [{"compound": "CC1CC(C)(C)c2cccc(NC(=O)c3cn(C)nc3C(F)F)c21", "note": "(stereo not shown) [Present compound 1]", "values": [{"measurement": "Efficacy (%)", "setting": "[1]; concentration in medium 0.005 ppm", "value": 15, "unit": "%"}, {"measurement": "Efficacy (%)", "setting": "[1]; concentration in medium 0.1 ppm", "value": 70, "unit": "%"}, {"measurement": "Efficacy (%)", "setting": "[2]; 0.0005 ppm", "value": 56, "unit": "%"}, {"measurement": "Efficacy (%)", "setting": "[2]; 0.01 ppm", "value": 68, "unit": "%"}]}]}
